Laboratory results taken from patent publication US20130324543A1, “REVERSAL OF HIGH BREAST CANCER RISK IN MAMMALS EXPOSED TO ESTROGENIC CHEMICALS IN UTERO BY ADULT EXPOSURE TO HDAC AND DNMT INHIBITORS” (Georgetown University, priority 2012, published 2013).
“Also recorded” adds a separate entry of the source.

Columns and labels:
[1] = Puberty onset (vaginal opening) of female mice exposed in utero; assay type: in vivo, C57BL/6 mice
Description: To assess possible changes in sexual maturation due to in utero ECD exposures during embryogenesis, the day of puberty onset was recorded, as defined based on vaginal opening (VO) in female mice. The mice were examined once a day starting on PND 21. In sexually mature mice, the stage of estrus cycle was determined based on the cytology of their vaginal smear (sampled by pipetting 20 μl PBS in and out of vagina onto a slide) as judged under the microscope. Stage of estrus cycle was determined for each mouse before necropsy and sample collection.

Dnmt1 = assay: Dnmt mRNA expression (qRT-PCR) in mammary glands of F1-F3 rat offspring; assay type: in vivo, Sprague-Dawley rats; conditions: for levels of Dnmt1 mRNA in mammary gland: PND50
Source text: Total mammary RNA (n=3-6/group) was used as a template for random primed cDNA synthesis (TaqMan MultiScribe Reverse Transcriptase and RT-PCR Reagents, AppliedBiosystems, Roche, N.J., USA). cDNA samples were then used as templates for quantitative RT PCR analysis with previously described specific primers for the target gene, rat Dnmt1 (124) using QuantiTect SYBR green PCR kit (Qiagen Inc., Valencia, Calif.). Each sample was normalized to the reference gene 18S rRNA (27). Two hundred ng of total RNA per sample (n=3-6) was used as a template for random primed cDNA synthesis with a recombinant Moloney murine leukemia virus reverse transcriptase (TaqMan MultiScribe Reverse Transcriptase and RT-PCR Reagents, AppliedBiosystems, Roche, N.J., USA), according to manufacturer's instructions. An RT enzyme-minus control reaction was also included. The cDNA samples were then used as templates for quantitative real time PCR analysis with previously described specific primers for the target gene, rat Dnmt1(29) using QuantiTect SYBR green PCR kit (Qiagen Inc., Valencia, Calif.) and an ABI Prism 7900 Sequence Detection System. Each sample was run in triplicate, and the qPCR run was repeated twice. Absolute gene expression levels were determined using Applied Biosystems' SDS2.3 software and the standard curve method. Concentration of each sample was normalized to the reference gene 18S rRNA (30), and averages of the three runs are shown. Differences in Dnmt1 mRNA expression levels were tested by two-way ANOVA (after log-transformation), followed by Holm-Sidak multicomparison procedure.

mammary gland = assay: Number of terminal end buds (TEBs) in mammary whole mounts of F1-F3 rat offspring; assay type: in vivo, Sprague-Dawley rats; conditions: mean±s.e.m.
Description: Whole mounts (n=5-6 per group and age) were examined under the microscope and evaluated as described before (28) to assess the number of terminal end buds (TEBs). Results were analyzed by t-test (or Mann-Whitney Rank Sum test) or one-ANOVA (when comparing outcross groups in F2 generation). Where appropriate, between groups comparisons after ANOVA were done by Holm-Sidak multi-comparison procedure.

mammary tumors = assay: Acquired tamoxifen (TAM) resistance of mammary tumors in in utero exposed rats; assay type: in vivo; conditions: 14-week follow-up, 7% in the control group
[2] = Con x EE2 outcross (F2 generation)
[3] = EE2 x Con outcross (F2 generation)
[4] = maternal EE2 diet 0.1 ppm, F1 generation
[5] = maternal EE2 diet, F2 generation
[6] = maternal EE2 diet, F3 generation

For `C#C[C@]1(O)CC[C@H]2[C@@H]3CCc4cc(O)ccc4[C@H]3CC[C@@]21C` [EE2, ethinyl estradiol], the “puberty onset / vaginal opening” value ([1]; female offspring, in utero exposure) was “significantly earlier puberty onset; also recorded: significantly accelerated”, the puberty onset ([1]; female pups, instead of PND 32) was 27 PND and the “levels of Dnmt1 mRNA in mammary gland” value (Dnmt1; F1 generation) was “increased”. The “levels of Dnmt1 mRNA in mammary gland” value (Dnmt1; F2 and F3 generation offspring) was “this increase persisted”, the “DNMT3a or 3b expression in the mammary glands” value (Dnmt1; in utero exposed rats, not shown) was “Neither DNMT3a or 3b were altered” and the “Number of TEBs PND 21” value (mammary gland; [2]) was 19.4 ± 1.5. The “Number of TEBs PND 50” value (mammary gland; [2]) was 11.0 ± 1.2, the “Number of TEBs PND 21” value (mammary gland; [3]) was 32.7 ± 3.6 and the “Number of TEBs PND 50” value (mammary gland; [3]) was 22.8 ± 1.6. The “Number of TEBs PND 21” value (mammary gland; [4]) was 25.3 ± 1.3, the “Number of TEBs PND 50” value (mammary gland; [4]) was 32.5 ± 2.3 and the “Number of TEBs PND 21” value (mammary gland; [5]) was 30.8 ± 1.9. For the same compound, the “Number of TEBs PND 50” value (mammary gland; [5]) was 22.2 ± 3.8, the “Number of TEBs PND 21” value (mammary gland; [6]) was 33.0 ± 2.1 and the “Number of TEBs PND 50” value (mammary gland; [6]) was 28.7 ± 3.4. For the same compound, the “acquired resistance to TAM” value (mammary tumors) was 50%.
